Results taken from patent publication EP4635945A1, “CRYSTAL FORM OF PROXIMOD, PREPARATION METHOD THEREFOR, AND USE THEREOF” (Jiankuan (Suzhou) Biotechnology Co., Ltd, priority 2022, dated 2024).
“Also recorded” adds a separate entry of the source.

How the values were obtained:
Format in all cases: physicochemical
[1] = Intrinsic dissolution of tableted crystal forms; conditions: hydrochloride
[2] = Compressibility: tableting, hardness and tensile strength; conditions: die with a diameter of 6 mm; for Tensile strength Ts: Ts = 2F/IIDL; for Tensile strength Ts / Hardness: hydrochloride; for Hardness: same pressure; for Experimental phenomena: tableting
Description: In this experiment, a die with a diameter of 6 mm was used. The drug substance and the drug substance + excipient were tableted under the same pressure, respectively. After the elasticity of the prepared tablets was restored, the radial crushing force F, diameter D, and thickness L of the tablets were measured. The tensile strength of the tablets was calculated according to the following formula: Ts = 2F/IIDL.

[3] = Microscopic morphology and particle size; conditions: microscopy; for Length/short diameter ratio / Microscopic morphology: hydrochloride
Description: (§1) In the examples of the present application, the instrument used for the X-ray powder diffraction test is the D2 Phaser produced by Bruker. The instrument used for the differential scanning calorimetry test is the differential scanning calorimeter DSC 250 produced by TA Instruments. The instrument used for the thermogravimetric analysis is the thermogravimetric analyzer TGA 55 produced by TA Instruments. The instrument used for the FT-IR test is the Fourier infrared spectrometer ID1-summit produced by Thermo. The instrument used for the dynamic vapor sorption test is the DVS Intrinsic produced by Surface Measurement Systems (SMS). The instrument used for the microscopy is the microscope NJF-120A produced by Suzhou Nanguang Electronic Technology Co., Ltd.

[4] = Equilibrium solubility in organic solvents at room temperature (HPLC, XRPD of solids); conditions: 24 hours of equilibrium; for solubility at 24 h: organic solvent or mixture, thermodynamic from solid; for Solubility: hydrochloride
Description: After 24 hours of equilibrium, the saturated solutions were obtained by filtration. The contents of the samples in the saturated solutions were determined by high-performance liquid chromatography (HPLC) (the filtered solutions were diluted as needed), and the crystal forms of the solids before and after the experiment were characterized by XRPD to check whether phase changes occurred.

[5] = Fluidity: angle of repose, bulk and tap density, Hausner ratio; conditions: hydrochloride; for Compression degree: (tap density − bulk density)/tap density; for Bulk density / Tap density: fixed-volume method; for Bulk density: 50 mL; for Tap density: after tapping; for Angle of repose: pouring method with residual cone method; for Hausner ratio: tap density/bulk density
Description: This experiment was performed by using a tap density tester according to the fixed-volume method. The specific operations are as follows: The weighed powder, with a volume of 50 mL, was loaded into a graduated cylinder, and the graduated cylinder was secured onto a support. The graduated cylinder was set to be vibrated at 55 ± 5 vibrations per minute for 6-8 minutes. The volume change of the powder was measured in a measuring cup. The ratio of the weight of the powder to the volume (50 mL) before tapping is the bulk density of the powder, and the ratio of the weight of the powder to the volume after tapping is the tapped density of the powder.
The Hausner ratio and the compression degree were converted in the following methods. Hausner ratio = tap density/bulk density [formula] Compression degree = (tapdensity−bulkdensity)/tap density [formula]
This experiment was performed by a pouring method, and the angles of repose of the drug substances of the two crystal forms were measured in combination with a residual cone method to analyze their fluidities. The specific operations are as follows: The powder was poured onto the center of a disk with a specific diameter, and when the material on the slope of the powder pile began to flow freely out along the periphery of the disk, the pouring of the powder was stopped. The height (h) of the cone was measured, and the angle of repose was calculated in combination with the diameter (2r) of the disk, that is, tanQ = h/r.

[6] = Solid-state stability of crystal forms on storage (XRPD, purity); conditions: for Maximum single impurity after storage / Crystal form after storage / Main purity after storage: 30 days, exposed; for Time the crystal form remains stable: at 60 °C, 92.5% RH, and 45 °C/75% RH
Description: The crystal forms of the samples before and after storage were tested by XRPD.

[7] = Mechanical stability: grinding in agate mortar, XRPD; conditions: 50 mg ground with an agate mortar for 5 minutes; hydrochloride
Description: The samples before and after ground were detected by XRPD.

[8] = Adhesiveness: PE bag adhesive rate; conditions: flipped at 5 rpm, 10 minutes in each direction; hydrochloride
Description: The bags were sealed, flipped at a rotational speed of 5 rpm for 10 minutes, and continued to be flipped in a different flipping direction at a fixed rotational speed for 10 minutes. The materials were poured out of the bags, and the materials remaining in the bags were accurately weighed to calculate the adhesive rate.
The adhesive rate was calculated according to the following formula: Adhesive rate = (initialmaterialweight-remainingmaterialweight)/contact surface area. [formula]

[9] = Hygroscopicity by dynamic vapor sorption (DVS); conditions: for Hygroscopicity description: DVS, 90% RH, hydrochloride
Description: as §1

[10] = Medium pH = 4.0, flow rate 4 mL/minute, 5 min
[11] = Medium pH = 4.0, flow rate 4 mL/minute, 10 min
[12] = Medium pH = 4.0, flow rate 4 mL/minute, 30 min
[13] = Medium pH = 4.0, flow rate 4 mL/minute, 45 min
[14] = Medium pH = 4.0, flow rate 4 mL/minute, 60 min
[15] = Medium pH = 4.0, flow rate 4 mL/minute, 90 min

For `CCCc1nc(-c2ccc(-c3ccc(CCC(N)(CO)CO)cc3)cc2)co1.Cl` [Crystal form A, 2-amino-2-{2-(4'-(2-propyloxazol-4-yl)-[1,1'-biphenyl]-4-yl)ethyl}-1,3-propanediol hydrochloride], the Dissolution amount ([1]; Medium Water, 5 min) was 0.0005 mg/mL, the Dissolution amount ([1]; Medium Water, 10 min) was 0.0010 mg/mL and the Dissolution amount ([1]; Medium Water, 30 min) was 0.0011 mg/mL. For the same compound, the Dissolution amount ([1]; Medium Water, 45 min) was 0.0003 mg/mL, the Dissolution amount ([1]; Medium Water, 60 min) was 0.0010 mg/mL and the Dissolution amount ([1]; Medium Water, 90 min) was 0.0012 mg/mL. It also gave a Dissolution amount [1, 10] of 0.0346 mg/mL, a Dissolution amount [1, 11] of 0.0462 mg/mL and a Dissolution amount [1, 12] of 0.0481 mg/mL. It also gave a Dissolution amount [1, 13] of 0.0477 mg/mL, a Dissolution amount [1, 14] of 0.0487 mg/mL and a Dissolution amount [1, 15] of 0.0479 mg/mL. The “Tensile strength Ts” value [2] was 0.17, the Hardness [2] was 5 N and the Experimental phenomena [2] was “Severe punch sticking”. The Length/short diameter ratio [3] was 1-3, the Microscopic morphology [3] was “flaky” and the solubility at 24 h ([4]; acetone) was 43 µg/mL. For the same compound, the solubility at 24 h ([4]; ethanol) was 9990 µg/mL, the solubility at 24 h ([4]; ethyl acetate) was 11 µg/mL and the Compression degree [5] was 33.0% 33.0%. For the same compound, the Bulk density [5] was 0.34 g/mL, the Tap density [5] was 0.50 g/mL and the Angle of repose [5] was 56.25 °. For the same compound, the Hausner ratio [5] was 1.5, the “Maximum single impurity after storage” value ([6]; At 40 °C/75% RH) was “Maximum single impurity: 0.04 A%” and the “Crystal form after storage” value ([6]; At 40 °C/75% RH, hydrochloride) was “Crystal form A”. For the same compound, the “Main purity after storage” value ([6]; At 40 °C/75% RH, hydrochloride) was “Main purity: 99.82 A%”, the “Maximum single impurity after storage” value ([6]; At 60 °C) was “Maximum single impurity: 0.04 A%” and the “Crystal form after storage” value ([6]; At 60 °C, hydrochloride) was “Crystal form A”. The “Main purity after storage” value ([6]; At 60 °C, hydrochloride) was “Main purity: 99.80 A%”, the “Maximum single impurity after storage” value ([6]; At 92.5%RH) was “Maximum single impurity: 0.04 A%” and the “Crystal form after storage” value ([6]; At 92.5%RH, hydrochloride) was “Crystal form A”. The “Main purity after storage” value ([6]; At 92.5%RH, hydrochloride) was “Main purity: 99.81 A%”, the “Maximum single impurity before storage” value [6] was “Maximum single impurity: 0.04 A%” and the “Main purity before storage” value ([6]; hydrochloride) was “Main purity: 99.79 A%”. The “Crystal form after storage” value ([6]; In light, hydrochloride) was “Crystal form A”, the “Main purity after storage” value ([6]; In light, hydrochloride) was “Main purity: 98.83 A%” and the “Maximum single impurity after storage” value ([6]; In light, hydrochloride) was “Maximum single impurity: 0.43 A%”. For the same compound, the “Time the crystal form remains stable” value [6] was “at least 30 days”, the “Crystal form after ground (XRPD)” value [7] was “remains unchanged” and the “PE bag adhesive rate” value [8] was 0.0007 g/cm^2. For the same compound, the “Weight gain by water absorption (DVS)” value ([9]; 24.4 °C/90% RH) was 0.06%, the Hygroscopicity description [9] was “no or almost no hygroscopicity; also recorded: slightly hygroscopic” and the “Weight gain by water absorption (DVS)” value ([9]; vapor sorption at 25 °C/90% RH) was 0.26%.
In the case of `CCCc1nc(-c2ccc(-c3ccc(CCC(N)(CO)CO)cc3)cc2)co1.Cl` [Crystal form B, 2-amino-2-{2-(4'-(2-propyloxazol-4-yl)-[1,1'-biphenyl]-4-yl)ethyl}-1,3-propanediol hydrochloride], the Dissolution amount ([1]; Medium Water, 5 min) was “Not detected”, the Dissolution amount ([1]; Medium Water, 10 min) was 0.0002 mg/mL and the Dissolution amount ([1]; Medium Water, 30 min) was 0.0003 mg/mL. For the same compound, the Dissolution amount ([1]; Medium Water, 45 min) was 0.0009 mg/mL, the Dissolution amount ([1]; Medium Water, 60 min) was 0.0003 mg/mL and the Dissolution amount ([1]; Medium Water, 90 min) was 0.0004 mg/mL. It also gave a Dissolution amount [1, 10] of 0.0307 mg/mL, a Dissolution amount [1, 11] of 0.0404 mg/mL and a Dissolution amount [1, 12] of 0.0461 mg/mL. The Dissolution amount [1, 13] was 0.0488 mg/mL, the Dissolution amount [1, 14] was 0.0469 mg/mL and the Dissolution amount [1, 15] was 0.0487 mg/mL. For the same compound, the “Tensile strength Ts” value [2] was 0.10, the Hardness [2] was 3 N and the Experimental phenomena [2] was “Severe punch sticking”. For the same compound, the Maximum particle size [3] was “less than 100 µm”, the Length/short diameter ratio [3] was 1-6 and the Microscopic morphology [3] was “rod-shaped”. The Solubility ([4]; Acetone) was 0.032 mg/mL, the Solubility ([4]; Ethanol) was 7.61 mg/mL and the Solubility ([4]; Ethyl acetate) was “Not detected”. It also gave a Compression degree [5] of 58.0%, a Bulk density [5] of 0.14 g/mL and a Tap density [5] of 0.33 g/mL. The Angle of repose [5] was 64.95 °, the Hausner ratio [5] was 2.4 and the “Maximum single impurity after storage” value ([6]; At 40 °C/75% RH) was “Maximum single impurity: 0.04 A%”. For the same compound, the “Crystal form after storage” value ([6]; At 40 °C/75% RH, hydrochloride) was “Crystal form B”, the “Main purity after storage” value ([6]; At 40 °C/75% RH, hydrochloride) was “Main purity: 99.80 A%” and the “Maximum single impurity after storage” value ([6]; At 60 °C) was “Maximum single impurity: 0.04 A%”. The “Crystal form after storage” value ([6]; At 60 °C, hydrochloride) was “Crystal form B”, the “Main purity after storage” value ([6]; At 60 °C, hydrochloride) was “Main purity: 99.79 A%” and the “Maximum single impurity after storage” value ([6]; At 92.5%RH) was “Maximum single impurity: 0.04 A%”. For the same compound, the “Crystal form after storage” value ([6]; At 92.5%RH, hydrochloride) was “Crystal form B”, the “Main purity after storage” value ([6]; At 92.5%RH, hydrochloride) was “Main purity: 99.83 A%” and the “Maximum single impurity before storage” value [6] was “Maximum single impurity: 0.04 A%”. For the same compound, the “Main purity before storage” value ([6]; hydrochloride) was “Main purity: 99.78 A%”, the “Crystal form after storage” value ([6]; In light, hydrochloride) was “Crystal form B” and the “Main purity after storage” value ([6]; In light, hydrochloride) was “Main purity: 99.19 A%”. The “Maximum single impurity after storage” value ([6]; In light, hydrochloride) was “Maximum single impurity: 0.21 A%”, the “Time the crystal form remains stable” value [6] was “at least 30 days” and the “Crystal form after ground (XRPD)” value [7] was “partially crystal transformed into the crystal form A”. For the same compound, the “PE bag adhesive rate” value [8] was 0.0003 g/cm^2, the “Weight gain by water absorption (DVS)” value ([9]; 25.6 °C/90% RH) was 0.30% and the Hygroscopicity description [9] was “slightly hygroscopic”. For the same compound, the “Weight gain by water absorption (DVS)” value ([9]; vapor sorption at 25 °C/90% RH) was 0.26%.
